Reference: patent publication US5624932A (priority 1995, dated 1997)
“Also recorded” adds a separate entry of the source.

Key:
morphine-dependent rats = system: morphine-dependent rats; set-up: species or system Wistar rats; details: rat, in vivo
[1] = system: dorsal root ganglion (DRG) neurons; type: cell-based, mouse
[2] = system: morphine-dependent monkeys; set-up: species or system rhesus monkeys (Macaca mulatta); details: rhesus monkey, in vivo
opiate addicts = details: in vivo
[3] = in vivo; cited from earlier work
[4] = system: chronic opioid-treated DRG neurons; type: cell-based, mouse
[5] = system: dorsal root ganglion (DRG) neurons; details: nM-μM; cited from earlier work
[6] = system: morphine-dependent monkeys; details: rhesus monkey, in vivo

Compound: CCC(=O)C(CC(C)N(C)C)(c1ccccc1)c1ccccc1 (stereo not shown) [Methadone, methadone]
- prevention of body weight loss (morphine-dependent rats): 48.15%
- suppression of other withdrawal symptoms (morphine-dependent rats): 49.4%
- effect on naloxone induced withdrawal symptoms (morphine-dependent rats; ip): suppressed
- effect on body weight loss (morphine-dependent rats; sc): prevent further body weight loss
- second naloxone test, withdrawal symptoms (morphine-dependent rats; sc): less severe withdrawal symptoms in comparison to the morphine group, yet more severe when compare with the DHE group
- significance of effect on body weight loss vs untreated (saline) control (morphine-dependent rats; sc): highly significant
- Alteration of action potential duration, opioid at high concentration [1]: inhibitory APD-shortening
- Alteration of action potential duration, opioid at low concentration [1]: excitatory APD-prolonging; also recorded: Prolongation
- Scores of withdrawal syndromes, 1st naloxone precipitation (X ± SD) [2]: 17.0 ± 4.6
- Scores of withdrawal syndromes, 2nd naloxone precipitation (X ± SD) [2]: 1.3 ± 1.2
- naloxone precipitation test on day 9 [2]: naloxone precipitated withdrawal symptoms
- naloxone withdrawal symptoms after maintenance or substitution treatment [2]: moderate naloxone withdrawal symptoms
- withdrawal symptoms between injections during substitution [2]: some moderate withdrawal symptoms
- withdrawal symptoms during the first several days of substitution [2]: partially suppressed
- addiction resulting from substitution treatment (opiate addicts): invariably results in transfer to methadone addiction
- rebound of withdrawal symptoms (opiate addicts): often results in the rebound of withdrawal symptoms
- side effects during substitution treatment (opiate addicts): negligible
- time before symptomatic relief (opiate addicts): one to several

Compound: CN1CC[C@]23CCCC[C@H]2[C@H]1Cc1ccc(O)cc13 [Levorphenol]
- Alteration of action potential duration, opioid at high concentration [1]: Shortening
- Alteration of action potential duration, opioid at low concentration [1]: Prolongation

Compound: C=CCN1CC[C@]23c4c5ccc(O)c4O[C@H]2C(=O)CC[C@@]3(O)[C@H]1C5 [naloxone]
- peak response of naloxone induced withdrawal symptoms (morphine-dependent rats; ip, 4 mg/kg): ≤ 15 min
- time of maximum body weight loss after naloxone precipitation (morphine-dependent rats; ip, 4 mg/kg): 24 h
- time to gradual weight recovery after naloxone precipitation (morphine-dependent rats; ip, 4 mg/kg): 90 h
- oral or sublingual bioavailability [3]: low
- naloxone effect on APD of chronic opioid-treated DRG neurons [4]: excitatory APD-prolonging effect; also recorded: prolongs the APD
- effect of naloxone on the APD of naive DRG neurons [5]: does not alter the APD; also recorded: ineffective

Compound: CN1CC[C@]23c4c5ccc(O)c4O[C@H]2[C@@H](O)C=C[C@H]3[C@H]1C5 [Morphine, morphine]
- prevention of body weight loss (morphine-dependent rats): 43.5%
- suppression of other withdrawal symptoms (morphine-dependent rats): 45.5%
- time to complete recovery of weight loss (morphine-dependent rats; sc): 48 h
- time to reversal of body weight loss (morphine-dependent rats; sc): 3 h
- time after withdrawal at which withdrawal symptoms began [6]: Sixteen
